Results from ChEMBL document CHEMBL1154466, “3D and quantum QSAR of non-benzodiazepine compounds” (Eur J Med Chem, 2008).
Several values for one entry are separate records, joined by “and”; a condition that tells them apart may be missing. Equal entries are not always repeated.

test: Displacement of [3H]diazepam from benzodiazepine receptor

pIC50 | Compound
9.05 | CCOC(=O)c1ncc2c(c1COC)-c1cc(O)ccc1C2
4.6 | Nc1cc2c(cn1)Cc1ccccc1-2
6.02 | CCOC(=O)c1ncc2c(c1COC)-c1cc(OCc3ccccc3)ccc1C2C (centres undefined)
9.3 | CCOC(=O)c1ncc2c(c1COC)-c1cc(OC)ccc1C2
6.9 | O=[N+]([O-])c1cc2c(cn1)Cc1ccccc1-2
9 | CCOC(=O)c1ncc2c(c1COC)-c1cc(OCc3ccccc3)ccc1C2
8.64 | CCOC(=O)c1ncc2c(c1COC)-c1ccccc1C2
6.91 | COc1cc2c(cn1)Cc1ccccc1-2
7.35 | Clc1cc2c(cn1)Cc1ccccc1-2
8.3 | COC(=O)c1cc2c(cn1)Cc1ccccc1-2
5.4 | Oc1cc2c(cn1)Cc1ccccc1-2
7.62 | CCOc1cc2c(cn1)Cc1ccccc1-2
8.05 | CCOC(=O)c1cc2c(cn1)Cc1ccc(OCc3ccccc3)cc1-2
5.79 | c1ccc2c(c1)Cc1cnccc1-2
7.96 | CCCOc1cc2c(cn1)Cc1ccccc1-2
8.1 | S=C=Nc1cc2c(cn1)Cc1ccccc1-2
7.66 | CCOC(=O)c1ncc2c(c1CC)-c1cc(OCc3ccccc3)ccc1C2

test: Displacement of [3H]diazepam from benzodiazepine receptor in rat brain; format: tissue-based

Compound | pIC50
CC(=O)Nc1cccc(Cn2c(Br)nc3c(N(C)C)ncnc32)c1 | 6.08
CC(=O)Oc1cccc(Cn2cnc3c(N(C)C)ncnc32)c1 | 6.36
CNc1nc2c(N(C)C)ncnc2n1Cc1cccc(NC=O)c1 | 6.44
CN(C)c1ncnc2c1ncn2Cc1ccccc1Cl | 4.89
CN(C)c1ncnc2c1ncn2Cc1cccc(N)c1 | 6.05
CN(C)c1ncnc2c1ncn2Cc1ccccc1F | 5.27
CN(C)c1ncnc2c1nc(Br)n2Cc1cccc(NC(=O)c2ccccc2)c1 | 5.1
CN(C)c1ncnc2c1nc(N(C)C)n2Cc1ccccc1 | 5.24
CCCC(=O)c1cc2c(cn1)[nH]c1ccccc12 | 7.64
COc1nc2c(N(C)C)ncnc2n1Cc1cccc(N)c1 | 6
CC(C)(C)OC(=O)c1cc2c3ccccc3nc-2c[nH]1 | 8
c1ccc2c(c1)[nH]c1cnccc12 [NORHARMANE] | 5.79
COC(=O)Nc1cccc(Cn2c(Br)nc3c(N(C)C)ncnc32)c1 | 5.28
CN(C)c1ncnc2c1nc(Br)n2Cc1cccc(NS(C)(=O)=O)c1 | 5.82
CCOC(=O)c1cc2c(cn1)[nH]c1ccccc12 | 8.3
CN(C)c1ncnc2c1nc(N(C)C)n2Cc1cccc(NC=O)c1 | 6.96
CN(C)c1ncnc2c1ncn2Cc1ccccc1 | 4.89
CN(C)c1ncnc2c1nc(Br)n2Cc1cccc(NC(N)=O)c1 | 7.6

Compound | pIC50
CN(C)c1ncnc2c1ncn2Cc1cccc(CO)c1 | 5.3
CN(C)c1ncnc2c1nc(O)n2Cc1cccc(NC=O)c1 | 6.89
c1ccc(COc2nccc3c2[nH]c2ccccc23)cc1 | 6
CN(C)c1ncnc2c1ncn2Cc1cccc(OC(=O)C(C)(C)C)c1 | 5.8
CN(C)c1ncnc2c1nc(Br)n2Cc1ccccc1 | 5.52
CN(C)c1ncnc2c1nc(Br)n2Cc1cccc(NC=O)c1 | 7.96
Cc1nccc2c1[nH]c1ccccc12 [HARMAN] | 4.91
CC(C)(C)C(=O)c1nccc2c1[nH]c1ccccc12 | 6.45
CN(C)c1ncnc2c1nc(N(C)C)n2Cc1cccc(N)c1 | 6.22
CN(C)c1ncnc2c1nc(Br)n2Cc1cccc(N)c1 | 6.96
COC(=O)c1cc2c(cn1)[nH]c1ccccc12 [BETA-CCM] | 8.3
CN(C)c1ncnc2c1ncn2Cc1cccc(F)c1 | 5.14
CN(C)c1ncnc2c1ncn2Cc1cccc(NC=O)c1 | 7.47
CN(C)c1ncnc2c1nc(Cl)n2Cc1cccc(N)c1 | 6.72
CNc1nc2c(N(C)C)ncnc2n1Cc1cccc(N)c1 | 5.14
CN(C)c1ncnc2c1ncn2Cc1cccc(O)c1 | 5.92
CN(C)c1ncnc2c1nc(O)n2Cc1cccc(N)c1 | 5.74
Cc1nc2c(N(C)C)ncnc2n1Cc1ccccc1 | 5.07

The remaining lines, values ahead:

pIC50 | Compound
7.62 | CCOc1cc2c(cn1)[nH]c1ccccc12
6.12 | CC(C)(C)COC(=O)c1cc2c3ccccc3nc-2c[nH]1
7.35 | Clc1cc2c(cn1)[nH]c1ccccc12
7.01 | CCCCOc1cc2c(cn1)[nH]c1ccccc12
6.91 | COc1cc2c(cn1)[nH]c1ccccc12
7.96 | CCCOc1cc2c(cn1)[nH]c1ccccc12
6.33 | CCC(C)Oc1nccc2c1[nH]c1ccccc12 (centres undefined)
6.29 | CC(C)Oc1cc2c(cn1)[nH]c1ccccc12
7.02 | CC(C)(C)COc1nccc2c1[nH]c1ccccc12
5.12 | CCc1nc(C(=O)OC)cc2c1[nH]c1ccccc12
5.27 | COc1nc2c(N(C)C)ncnc2n1Cc1ccccc1
6.64 | CCCCc1cc2c(cn1)[nH]c1ccccc12
4.77 | CNc1nc2c(N(C)C)ncnc2n1Cc1ccccc1
7.03 | CC(C)COc1nccc2c1[nH]c1ccccc12
4.7 | COc1ccccc1Cn1cnc2c(N(C)C)ncnc21
6.9 | O=[N+]([O-])c1cc2c3ccccc3nc-2c[nH]1
6.27 | CC(C)CCOc1nccc2c1[nH]c1ccccc12

test: Displacement of [3H]flunitrazepam from benzodiazepine receptor in rat forebrain

Compound | pIC50
CCc1c(OC)nc2nc(C(=O)c3ccccc3)cn2c1CC | 6.971
CCCc1cc(SC)nc2nc(C(=O)c3ccccc3)cn12 | 7.051
COc1nc2nc(C(=O)c3ccccc3)cn2c(C)c1CC1=CC1 | 7.523 and 7.347
CCCc1c(OC)nc2nc(C(=O)c3ccccc3)cn2c1C | 7.071
COc1cc(C)n2cc(C(=O)c3ccccc3)nc2n1 | 6.097
CCc1cn2cc(C(=O)c3ccccc3)nc2nc1OC | 5.824
CCc1c(CC2=CC2)c(OC)nc2nc(C(=O)c3ccccc3)cn12 | 7.377
CCCCc1c(OC)nc2nc(C(=O)c3ccccc3)cn2c1CC | 7.469
C=CCc1c(SC)nc2nc(C(=O)c3ccccc3)cn2c1C | 8.097
CCCc1c(OC)nc2nc(C(=O)c3ccccc3)cn2c1CC | 7.469
CCCCc1cc(OC)nc2nc(C(=O)c3ccccc3)cn12 | 6.469
CCCCc1c(OC)nc2nc(C(=O)c3ccccc3)cn2c1C | 7.377
CCc1c(OC)nc2nc(C(=O)c3ccccc3)cn2c1C [DIVAPLON] | 7.252
CSc1cc(C)n2cc(C(=O)c3ccccc3)nc2n1 | 6.721
COc1nc2nc(C(=O)c3ccccc3)cn2c(C)c1OC | 6
CCCc1c(SC)nc2nc(C(=O)c3ccccc3)cn2c1CC | 7.328
CCc1c(SC)nc2nc(C(=O)c3ccccc3)cn2c1C | 7.921

The next lines start with the values.

pIC50 | Compound
6.272 | CCCc1cc(OC)nc2nc(C(=O)c3ccccc3)cn12
6.53 | CCc1cc(OC)nc2nc(C(=O)c3ccccc3)cn12
